Experimental data published in patent US20220281846A1, “COMPOUNDS AND COMPOSITIONS FOR THE TREATMENT OF RESPIRATORY DISEASES” (THE UNIVERSITY OF MELBOURNE, priority 2018, published 2022).
Several values for one entry are separate records, joined by “and”; a condition that tells them apart may be missing. Equal entries are not always repeated. Where two headings read alike, the source gives them in different places.

Columns and labels:
[1] = target: T1, human recombinant Casein kinase 18 (CK1δ) (Homo sapiens, UniProt P48730); assay: Kinase inhibition assay (HotSpot, Reaction Biology Corp), CK1δ; format: biochemical; settings: 10 μM ATP, 10-dose IC50 mode; read-out: Compound IC50 (M) CK1δ
T1 construct: purchased Reaction Biology Corp
T1 sequence (P48730 whole entry): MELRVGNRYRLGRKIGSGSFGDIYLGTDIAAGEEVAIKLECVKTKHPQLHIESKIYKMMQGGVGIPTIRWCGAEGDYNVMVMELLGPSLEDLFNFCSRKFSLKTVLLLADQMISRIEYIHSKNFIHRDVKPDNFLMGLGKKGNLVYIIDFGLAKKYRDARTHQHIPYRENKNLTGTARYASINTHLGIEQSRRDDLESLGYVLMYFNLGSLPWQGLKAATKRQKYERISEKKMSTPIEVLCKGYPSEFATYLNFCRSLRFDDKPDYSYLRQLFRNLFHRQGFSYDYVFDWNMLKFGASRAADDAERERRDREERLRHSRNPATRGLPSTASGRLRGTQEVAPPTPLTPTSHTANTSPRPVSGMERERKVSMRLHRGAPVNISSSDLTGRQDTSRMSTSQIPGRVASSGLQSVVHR

[2] = Mouse pharmacokinetics, IV and oral administration; format: in vivo; settings: male C57BL/6 mice; for concentration at 0.017 h / concentration at 0.033 h / concentration at 0.083 h / concentration at 0.25 h / concentration at 0.5 h / concentration at 1 h / concentration at 2 h / concentration at 4 h / concentration at 7.5 h / concentration at 24 h: male, C57BL/6, mouse
Procedure: PF670462 (2HCl.0.4 mol. eq. isopropanol) and ZH3-138 (unionised) were administered to male C57BL/6 mice by IV (3 mg/kg) or orally (10 mg/kg). IV administration was achieved by bolus injection into the tail vein of mice using 1 mL syringe with 25G×1″ needle at a volume of 3 mL/kg. Oral administration was achieved by gavage needle at a volume of 3 mL/kg.
Intravenous (IV) and oral formulations were prepared using the same method. On the day of dosing, each of the solid compound was dissolved in DMSO to which an aqueous solution containing 10% Captisol was added. Hydrochloric acid (1 M) was used to modify pH for the formulation of ZH3-138 with the purpose of solubilising the compound (see Section B for the final pH of each formulation). The formulations of each compound were thoroughly vortexed, producing colourless solutions for all three compounds.
The systemic exposure of PF670462 and ZH3-138 was studied in non-fasted male C57BL/6 mice weighing 19.8-26.8 g. Mice had access to food and water ad libitum throughout the pre- and post-dose sampling period.
Compounds were dosed to mice by bolus injection into the lateral tail vein (3 mL/kg) for IV administration and by gavage (3 mL/kg) for oral administration. Following IV and oral administration, blood samples were collected up to 24 h (n=3 mice per time point) with a maximum of three samples from each mouse. Samples were collected via submandibular bleed (approximately 120 μL; conscious sampling). No urine samples were collected as mice were housed in bedded cages.
Blood was collected into polypropylene Eppendorf tubes containing heparin as anticoagulant and stabilisation cocktail (containing Complete® (a protease inhibitor cocktail) and potassium fluoride) to minimise the potential for ex vivo compound degradation in blood/plasma samples.
Once collected, blood samples were centrifuged immediately, supernatant plasma was removed, and stored at −80° C. until analysis by LC-MS.
Plasma samples were quantified against calibration standards prepared by spiking blank mouse plasma (50 μL) with solution standards (10 μL) obtained by diluting a stock solution of test compound (1 mg/mL in DMSO) with 50% acetonitrile in water. Diazepam (10 μL of 5 μg/mL in 50% acetonitrile/water) was added to all plasma calibration standards and samples as an internal standard (IS). The extraction of the test compound and IS from plasma was conducted using protein precipitation with acetonitrile. Protein precipitation was carried out by the addition of acetonitrile followed by vortexing and centrifugation (10,000 rpm) for 3 minutes to obtain supernatant for analysis using the LC-MS conditions described in Table 7.

[3] = system: interleukin-1α (IL1α)-mediated cytokine production by the lung adenocarcinoma cell line A549; assay: Cellular assay (A549) against IL1α-mediated cytokine production; format: cell-based, human; settings: serum starved A549 cells, compound 30 min prior to IL-1α (1 ng/ml) for 24 h, ELISA
Procedure: Cellular Assay (A549 Human Lung Adenocarcinoma Cells) Assessing Effect of ZH3-138, ZH3-126 and PF670462 Against IL1α-Mediated Cytokine Production
The anti-inflammatory potential of selected compounds was examined by establishing the effects on interleukin-1α (IL1α)-mediated cytokine production by the lung adenocarcinoma cell line A549. Serum starved A549 cells were treated with various concentrations of the relevant CK1δ inhibitor (PF670462, ZH3-126 and ZH3-138) 30 min prior to IL-1α (1 ng/ml) for 24 h. Supernatant was collected and concentration of IL-6, IL-8 and GM-CSF was detected by ELISA. Data are presented as mean±SEM across three replicates in FIG. 7 (A: IL-6; B: IL-8 and C: GM-CSF).

IC50 [1]: 9.32e-09 M | apparent blood clearance [2]: low | apparent blood volume of distribution [2]: moderate | time post-dose for which plasma concentration was measurable (above LLQ) ([2]; 24 h sampling period): ≥ 24 h | Plasma Concentration, Individual ([2]; IV 2.69 mg/kg, 0.017 h, 2.69 mg/kg): 11.4 µM and 9.81 µM | Plasma Concentration, Individual ([2]; IV 2.69 mg/kg, 0.033 h, 2.69 mg/kg): 6.30 µM and 9.37 µM | Plasma Concentration, Individual ([2]; IV 2.69 mg/kg, 0.083 h (actual sampling time was 0.10 h), 2.69 mg/kg): 5.94 µM and 5.95 µM | Plasma Concentration, Individual ([2]; IV 2.69 mg/kg, 0.25 h, 2.69 mg/kg): 4.68 µM and 4.21 µM | Plasma Concentration, Individual ([2]; IV 2.69 mg/kg, 0.5 h, 2.69 mg/kg): 4.12 µM and 4.28 µM | Plasma Concentration, Individual ([2]; IV 2.69 mg/kg, 1.0 h, 2.69 mg/kg): 2.73 µM and 3.70 µM | Plasma Concentration, Individual ([2]; IV 2.69 mg/kg, 2.0 h, 2.69 mg/kg): 5.24 µM and 4.00 µM | Plasma Concentration, Individual ([2]; IV 2.69 mg/kg, 4.0 h, 2.69 mg/kg): 3.53 µM and 3.63 µM | Plasma Concentration, Individual ([2]; IV 2.69 mg/kg, 7.5 h, 2.69 mg/kg): 1.77 µM and 1.54 µM | Plasma Concentration, Individual ([2]; IV 2.69 mg/kg, 24 h, 2.69 mg/kg): 0.0287 µM and 0.0211 µM | Plasma Concentration, Individual ([2]; oral 8.96 mg/kg, 0.25 h, 8.96 mg/kg): 14.7 µM and 8.96 µM | Plasma Concentration, Individual ([2]; oral 8.96 mg/kg, 0.50 h, 8.96 mg/kg): 11.3 µM and 22.5 µM | Plasma Concentration, Individual ([2]; oral 8.96 mg/kg, 1.0 h, 8.96 mg/kg): 16.2 µM and 14.4 µM | Plasma Concentration, Individual ([2]; oral 8.96 mg/kg, 2.0 h, 8.96 mg/kg): 17.4 µM and 17.7 µM | Plasma Concentration, Individual ([2]; oral 8.96 mg/kg, 4.0 h, 8.96 mg/kg): 10.2 µM and 15.1 µM | Plasma Concentration, Individual ([2]; oral 8.96 mg/kg, 7.5 h, 8.96 mg/kg): 5.97 µM and 8.71 µM | Plasma Concentration, Individual ([2]; oral 8.96 mg/kg, 24 h, 8.96 mg/kg): 0.0400 µM and 0.0758 µM | time of apparent secondary peak in concentration-time profile ([2]; post-dose): 2 h | concentration at 0.017 h ([2]; plasma, iv, 2.69 mg/kg, IV 2.69 mg/kg, 0.017 h, read-out: Plasma Concentration, Individual): 11.1 µM | concentration at 0.017 h ([2]; plasma, iv, 2.69 mg/kg, IV 2.69 mg/kg, 0.017 h, read-out: Plasma Concentration, Mean): 10.8 µM | concentration at 0.033 h ([2]; plasma, iv, 2.69 mg/kg, IV 2.69 mg/kg, 0.033 h, read-out: Plasma Concentration, Individual): 7.86 µM | concentration at 0.033 h ([2]; plasma, iv, 2.69 mg/kg, IV 2.69 mg/kg, 0.033 h, read-out: Plasma Concentration, Mean): 7.84 µM | concentration at 0.083 h ([2]; plasma, iv, 2.69 mg/kg, IV 2.69 mg/kg, 0.083 h (actual sampling time was 0.10 h), read-out: Plasma Concentration, Individual): 5.29 µM | concentration at 0.083 h ([2]; plasma, iv, 2.69 mg/kg, IV 2.69 mg/kg, 0.083 h (actual sampling time was 0.10 h), read-out: Plasma Concentration, Mean): 5.73 µM | concentration at 0.25 h ([2]; plasma, iv, 2.69 mg/kg, IV 2.69 mg/kg, 0.25 h, read-out: Plasma Concentration, Individual): 5.04 µM | concentration at 0.25 h ([2]; plasma, iv, 2.69 mg/kg, IV 2.69 mg/kg, 0.25 h, read-out: Plasma Concentration, Mean): 4.65 µM | concentration at 0.5 h ([2]; plasma, iv, 2.69 mg/kg, IV 2.69 mg/kg, 0.5 h, read-out: Plasma Concentration, Individual): 4.01 µM | concentration at 0.5 h ([2]; plasma, iv, 2.69 mg/kg, IV 2.69 mg/kg, 0.5 h, read-out: Plasma Concentration, Mean): 4.14 µM | concentration at 1 h ([2]; plasma, iv, 2.69 mg/kg, IV 2.69 mg/kg, 1.0 h, read-out: Plasma Concentration, Individual): 2.93 µM | concentration at 1 h ([2]; plasma, iv, 2.69 mg/kg, IV 2.69 mg/kg, 1.0 h, read-out: Plasma Concentration, Mean): 3.12 µM | concentration at 2 h ([2]; plasma, iv, 2.69 mg/kg, IV 2.69 mg/kg, 2.0 h, read-out: Plasma Concentration, Individual): 4.42 µM | concentration at 2 h ([2]; plasma, iv, 2.69 mg/kg, IV 2.69 mg/kg, 2.0 h, read-out: Plasma Concentration, Mean): 4.55 µM | concentration at 4 h ([2]; plasma, iv, 2.69 mg/kg, IV 2.69 mg/kg, 4.0 h, read-out: Plasma Concentration, Individual): 3.74 µM | concentration at 4 h ([2]; plasma, iv, 2.69 mg/kg, IV 2.69 mg/kg, 4.0 h, read-out: Plasma Concentration, Mean): 3.63 µM | concentration at 7.5 h ([2]; plasma, iv, 2.69 mg/kg, IV 2.69 mg/kg, 7.5 h, read-out: Plasma Concentration, Individual): 1.84 µM | concentration at 7.5 h ([2]; plasma, iv, 2.69 mg/kg, IV 2.69 mg/kg, 7.5 h, read-out: Plasma Concentration, Mean): 1.72 µM | concentration at 24 h ([2]; plasma, iv, 2.69 mg/kg, IV 2.69 mg/kg, 24 h, read-out: Plasma Concentration, Individual): 0.0237 µM | concentration at 24 h ([2]; plasma, iv, 2.69 mg/kg, IV 2.69 mg/kg, 24 h, read-out: Plasma Concentration, Mean): 0.0245 µM | concentration at 0.25 h ([2]; plasma, po, 8.96 mg/kg, oral 8.96 mg/kg, 0.25 h, read-out: Plasma Concentration, Individual): 12.1 µM | concentration at 0.25 h ([2]; plasma, po, 8.96 mg/kg, oral 8.96 mg/kg, 0.25 h, read-out: Plasma Concentration, Mean): 11.9 µM | concentration at 0.5 h ([2]; plasma, po, 8.96 mg/kg, oral 8.96 mg/kg, 0.50 h, read-out: Plasma Concentration, Individual): 13.7 µM | concentration at 0.5 h ([2]; plasma, po, 8.96 mg/kg, oral 8.96 mg/kg, 0.50 h, read-out: Plasma Concentration, Mean): 15.8 µM | concentration at 1 h ([2]; plasma, po, 8.96 mg/kg, oral 8.96 mg/kg, 1.0 h, read-out: Plasma Concentration, Individual): 13.9 µM | concentration at 1 h ([2]; plasma, po, 8.96 mg/kg, oral 8.96 mg/kg, 1.0 h, read-out: Plasma Concentration, Mean): 14.8 µM | concentration at 2 h ([2]; plasma, po, 8.96 mg/kg, oral 8.96 mg/kg, 2.0 h, read-out: Plasma Concentration, Individual): 13.8 µM | concentration at 2 h ([2]; plasma, po, 8.96 mg/kg, oral 8.96 mg/kg, 2.0 h, read-out: Plasma Concentration, Mean): 16.3 µM | concentration at 4 h ([2]; plasma, po, 8.96 mg/kg, oral 8.96 mg/kg, 4.0 h, read-out: Plasma Concentration, Individual): 11 µM | concentration at 4 h ([2]; plasma, po, 8.96 mg/kg, oral 8.96 mg/kg, 4.0 h, read-out: Plasma Concentration, Mean): 12.1 µM | concentration at 7.5 h ([2]; plasma, po, 8.96 mg/kg, oral 8.96 mg/kg, 7.5 h, read-out: Plasma Concentration, Individual): 6.59 µM | concentration at 7.5 h ([2]; plasma, po, 8.96 mg/kg, oral 8.96 mg/kg, 7.5 h, read-out: Plasma Concentration, Mean): 7.09 µM | concentration at 24 h ([2]; plasma, po, 8.96 mg/kg, oral 8.96 mg/kg, 24 h, read-out: Plasma Concentration, Individual): 0.0513 µM | concentration at 24 h ([2]; plasma, po, 8.96 mg/kg, oral 8.96 mg/kg, 24 h, read-out: Plasma Concentration, Mean): 0.0557 µM | half-life ([2]; mouse, plasma, read-out: apparent half-life (converted)): ~3 h
SMILES: Nc1nccc(-c2c(-c3ccc(F)cc3)ncn2C2CCC(F)(F)CC2)n1 [ZH3-138, 4-(1-(4,4-Difluorocyclohexyl)-4-(4-fluorophenyl)-1H-imidazol-5-yl)pyrimidin-2-amine]
supernatant concentrations of inflammatory biomarkers (IL-6, IL-8, GM-CSF) [3]: ability to reduce supernatant concentrations of other inflammatory biomarkers
